From patent US8921358B2, “Apoptosis signal-regulating kinase 1 inhibitors” (Takeda Pharmaceutical Company Limited, priority 2008, dated 2014)

Target: T1, human ASK1 (Homo sapiens, UniProt Q99683)
T1 construct: a 2.2 kb DNA fragment containing an ASK1 gene was recovered from the gel; made in house; host or cells: Sf-21 insect cells, recombinant baculovirus (pFASTBAC1, Bac-to-Bac)
T1 sequence (Q99683 649-1374 limits assumed): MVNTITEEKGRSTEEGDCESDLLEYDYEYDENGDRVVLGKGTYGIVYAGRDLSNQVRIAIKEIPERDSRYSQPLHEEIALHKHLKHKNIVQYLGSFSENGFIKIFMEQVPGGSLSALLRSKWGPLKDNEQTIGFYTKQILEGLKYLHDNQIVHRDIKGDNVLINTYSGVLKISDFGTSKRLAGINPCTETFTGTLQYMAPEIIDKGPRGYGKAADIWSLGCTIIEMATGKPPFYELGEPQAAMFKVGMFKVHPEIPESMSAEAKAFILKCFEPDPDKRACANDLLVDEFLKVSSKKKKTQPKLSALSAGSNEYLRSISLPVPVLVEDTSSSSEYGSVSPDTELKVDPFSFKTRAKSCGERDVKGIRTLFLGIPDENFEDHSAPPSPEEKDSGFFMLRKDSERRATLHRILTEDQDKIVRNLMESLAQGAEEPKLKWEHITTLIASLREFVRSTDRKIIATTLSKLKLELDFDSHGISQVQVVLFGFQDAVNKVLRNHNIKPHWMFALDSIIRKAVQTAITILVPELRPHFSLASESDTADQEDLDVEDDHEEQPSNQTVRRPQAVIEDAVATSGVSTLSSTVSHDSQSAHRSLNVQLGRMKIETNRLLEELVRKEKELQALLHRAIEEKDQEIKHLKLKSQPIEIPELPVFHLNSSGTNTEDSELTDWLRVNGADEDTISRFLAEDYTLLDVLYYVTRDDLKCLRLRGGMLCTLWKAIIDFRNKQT
Assay: Scintillation assay measuring inhibition of ASK1 phosphorylation of myelin basic protein
Type: biochemical
Details: active ASK1 protein 30 ng, myelin basic protein 1 μg, [γ-32P]ATP, room temperature 30 min; values given as ranges; read-out: Enzyme Activity IC50
Experimental: Cloning of cDNA encoding human ASK1 was conducted by PCR using primers, 5′-[…] AGAGAAGGGGA-3′ (SEQ ID NO: 1) and 5′-[…]-3′ (SEQ ID NO: 2), from human heart cDNA library (Becton, Dickinson and Company). The PCR product was subjected to agarose gel (1%) electrophoresis, a 2.2 kb DNA fragment containing an ASK1 gene was recovered from the gel, and then digested with restriction enzymes, NotI and SalI, and inserted into a plasmid pFASTBAC1 (Invitrogen) to prepare a plasmid pFB-ASK1. The insert was verified by sequencing. Recombinant baculovirus was prepared according to the procedure of the Bac-to-Bac baculovirus expression system (Invitrogen).
Sf-21 cells were seeded to achieve 1×10^6 cells/mL in 100 mL of Sf-900 II SFM medium (Invitrogen) which contains 10% fetal calf serum and then cultured at 27° C. for 24 hrs. To express ASK1 in cells, 0.15 mL of the recombinant baculovirus virus stock was added to cells, and the then cultured for 60 hrs. The cells were separated from the culture solution by centrifugation at 3000 rpm for 10 min and washed once with PBS. The cells were suspended in 10 mL of lysis buffer (25 mM HEPES (pH 7.5), 1% Triton X, 130 mM NaCl, 1 mM EDTA, 1 mM DTT, 25 mM β-glycerophosphate, Protease inhibitor complete (Roche), 1 mM sodium orthovanadate) and ruptured by four times of treatment with a homogenizer (POLYTRON) at 20000 rpm for 30 seconds. Active ASK1 protein was purified from a supernatant obtained by centrifugal separation at 40000 rpm for 45 min using anti-FLAG M2 Affinity Gel (Sigma).
The test compounds (2.5 μl) dissolved in DMSO were added to wells containing 37.5 μl of the reaction solution (25 mM HEPES (pH 7.5), 10 mM magnesium acetate, 1 mM DTT) including 30 ng of active ASK1 protein and 1 μg of myelin basic protein (Wako), and incubated at room temperature for 5 min. To start the reaction, 10 μL of ATP solution (2.5 μM ATP, 0.1 μCi [γ-^32P]ATP) was added to wells. After incubating at room temperature for 30 min, the reaction was terminated by adding 50 μl of 20% TCA solution. The reaction solution was incubated at 4° C. for 30 min and an acid-insoluble fraction was transferred onto a GF/C filter (Packard) with Cell Harvester (Packard), and washed with 250 mM phosphoric acid. After drying at 45° C. for 60 min., 40 μL of Microscint 0 (Packard) was added and the radioactivity was measured with TopCount (Packard). The concentrations (IC50 value) of the test compounds necessary for 50% inhibition of kinase activity were calculated by PRISM 3.0 (Graphpad Software).
The enzyme activities of selected compounds of the present invention against ASK1 were determined using the assay disclosed in Example A and B. The resulted pIC50 values are reported in Table 1.

Row | SMILES | IC50 [nM]
1 | CC(C)(C)c1ccc(C(=O)Nc2cc(N3CCCCC3CCO)n3nccc3n2)cc1 (centres unmarked) [Compound 105, 4-tert-butyl-N-(7-(2-(2-hydroxyethyl)piperidin-1-yl)pyrazolo[1,5-a]pyrimidin-5-yl)benzamide] | < 100
2 | CC(C)(O)c1ccc(C(=O)Nc2cc(N3CCC[C@H](C(=O)O)C3)n3nccc3n2)cc1 [Compound 86, (S)-1-(5-(4-(2-hydroxypropan-2-yl)benzamido)pyrazolo[1,5-a]pyrimidin-7-yl)piperidine-3-carboxylic acid] | > 1000
3 | CC(=O)NC1CCN(c2cc(NC(=O)[C@@H]3C[C@H]3c3ccc(F)cc3)nc3cc(C)nn23)CC1 (racemic) [Compound 361, N-(7-(4-acetamidopiperidin-1-yl)-2-methylpyrazolo[1,5-a]pyrimidin-5-yl)-2-(4-fluorophenyl)cyclopropanecarboxamide] | < 100
4 | CC(C)(O)c1ccc(C(=O)Nc2cc(N3CCC[C@H](C(N)=O)C3)n3nccc3n2)cc1 [Compound 85, (S)-1-(5-(4-(2-hydroxypropan-2-yl)benzamido)pyrazolo[1,5-a]pyrimidin-7-yl)piperidine-3-carboxamide] | 100 to 1000
5 | CC(C)(O)c1ccc(C(=O)Nc2cc(NC3CC3)n3nccc3n2)cc1 [Compound 88, N-(7-(cyclopropylamino)pyrazolo[1,5-a]pyrimidin-5-yl)-4-(2-hydroxypropan-2-yl)benzamide] | 100 to 1000
6 | Cc1ccc(-c2cc(NC(=O)c3ccc(C(C)(C)O)cc3)nc3ccnn23)cc1 [Compound 20, 4-(2-Hydroxypropan-2-yl)-N-(7-p-tolylpyrazolo[1,5-a]pyrimidin-5-yl)benzamide] | < 100
7 | CC(C)(O)c1ccc(C(=O)Nc2cc(-c3cccc(NS(C)(=O)=O)c3)n3nccc3n2)cc1 [Compound 17, 4-(2-Hydroxypropan-2-yl)-N-(7-(3-(methylsulfonamido)phenyl)pyrazolo[1,5-a]pyrimidin-5-yl)benzamide] | 100 to 1000
8 | CSc1ccc(-c2cc(NC(=O)c3ccc(C(C)(C)O)cc3)nc3ccnn23)cc1 [Compound 23, 4-(2-hydroxypropan-2-yl)-N-(7-(4-(methylthio)phenyl)pyrazolo[1,5-a]pyrimidin-5-yl)benzamide] | < 100
9 | Cc1cc2nc(NC(=O)c3ccc(C(C)(C)CO)cc3)cc(N(C)CCc3ccccc3)n2n1 [Compound 127, 4-(1-hydroxy-2-methylpropan-2-yl)-N-(2-methyl-7-(methyl(phenethyl)amino)pyrazolo[1,5-a]pyrimidin-5-yl)benzamide] | > 1000
10 | CN(C)c1cc(NC(=O)c2ccc(C(C)(C)C)cc2)nc2ccnn12 [Compound 125, 4-tert-butyl-N-(7-(dimethylamino)pyrazolo[1,5-a]pyrimidin-5-yl)benzamide] | < 100
11 | CC(C)(C)c1ccc(C(=O)Nc2cc(N3CCC[C@@H](O)C3)n3nccc3n2)cc1 [Compound 77, (R)-4-tert-butyl-N-(7-(3-hydroxypiperidin-1-yl)pyrazolo[1,5-a]pyrimidin-5-yl)benzamide] | < 100
12 | CC(C)(C)c1ccc(C(=O)Nc2cc(NC3CC3)n3nccc3n2)cc1 [Compound 128, 4-tert-butyl-N-[7-(cyclopropylamino)pyrazolo[1,5-a]pyrimidin-5-yl]benzamide] | < 100
13 | CC(C)(O)c1ccc(C(=O)Nc2cc(N3CCC[C@@H]3CO)n3nccc3n2)cc1 [Compound 68, (R)—N-(7-(2-(hydroxymethyl)pyrrolidin-1-yl)pyrazolo[1,5-a]pyrimidin-5-yl)-4-(2-hydroxypropan-2-yl)benzamide] | 100 to 1000
14 | Nc1cc(-c2cccc(CO)c2)n2nccc2n1 [Compound 178, (3-(5-aminopyrazolo[1,5-a]pyrimidin-7-yl)phenyl)methanol] | > 1000
15 | Cc1cc2nc(NC(=O)c3ccc(C(C)(C)O)cc3)cc(N3CC[C@@H](O)C3)n2n1 [Compound 203, (R)-4-(2-hydroxypropan-2-yl)-N-(7-(3-hydroxypyrrolidin-1-yl)-2-methylpyrazolo[1,5-a]pyrimidin-5-yl)benzamide] | < 100
16 | CC(C)(O)c1ccc(C(=O)Nc2cc(N3CCc4[nH]ncc4C3)n3nccc3n2)cc1 [Compound 79, N-(7-(6,7-dihydro-1H-pyrazolo[4,3-c]pyridin-5(4H)-yl)pyrazolo[1,5-a]pyrimidin-5-yl)-4-(2-hydroxypropan-2-yl)benzamide] | 100 to 1000
17 | CC(C)(O)c1ccc(C(=O)Nc2cc(-c3cccc(CC#N)c3)n3nccc3n2)cc1 [Compound 21, N-(7-(3-(cyanomethyl)phenyl)pyrazolo[1,5-a]pyrimidin-5-yl)-4-(2-hydroxypropan-2-yl)benzamide] | 100 to 1000

Other lines, results leading:

Row | IC50 [nM] | SMILES
18 | > 1000 | CC(=O)c1cccc(-c2cc(NC(=O)c3ccc(C(C)(C)C)cc3)nc3ccnn23)c1 [Compound 12, N-(7-(3-Acetylphenyl)pyrazolo[1,5-a]pyrimidin-5-yl)-4-tert-butylbenzamide]
19 | < 100 | Cc1cc2nc(NC(=O)c3ccc(C(C)(C)C)cc3)cc(-c3cccc(CO)c3)n2n1 [Compound 1, 4-tert-butyl-N-(7-(3-(hydroxymethyl)phenyl)-2-methylpyrazolo[1,5-a]pyrimidin-5-yl)benzamide]
20 | < 100 | COc1cccc(-c2cc(NC(=O)c3ccc(C(C)(C)C)cc3)nc3ccnn23)c1 [Compound 15, 4-tert-Butyl-N-(7-(3-methoxyphenyl)pyrazolo[1,5-a]pyrimidin-5-yl)benzamide]
21 | < 100 | CC(C)(C)c1ccc(C(=O)Nc2cc(-c3cccc(CCO)c3)n3nccc3n2)cc1 [Compound 10, 4-tert-butyl-N-(7-(3-(2-hydroxyethyl)phenyl)pyrazolo[1,5-a]pyrimidin-5-yl)benzamide]
22 | < 100 | Cc1cc2nc(NC(=O)c3ccc(C(C)(C)C)cc3)cc(-c3ccc(F)c(CO)c3)n2n1 [Compound 4, 4-tert-butyl-N-(7-(4-fluoro-3-(hydroxymethyl)phenyl)-2-methylpyrazolo[1,5-a]pyrimidin-5-yl)benzamide]
23 | > 1000 | CC(C)(C)c1ccc(C(=O)Nc2cc(-c3ccc(S(C)(=O)=O)cc3)n3nccc3n2)cc1 [Compound 8, 4-tert-butyl-N-(7-(4-(methylsulfonyl)phenyl)pyrazolo[1,5-a]pyrimidin-5-yl)benzamide]
24 | < 100 | COc1ccc(-c2cc(NC(=O)c3ccc(C(C)(C)C)cc3)nc3ccnn23)cc1 [Compound 9, 4-tert-Butyl-N-(7-(4-methoxyphenyl)pyrazolo[1,5-a]pyrimidin-5-yl)benzamide]
25 | 100 to 1000 | CC(=O)Nc1ccc(-c2cc(NC(=O)c3ccc(C(C)(C)C)cc3)nc3ccnn23)cn1 [Compound 14, N-(7-(6-Acetamidopyridin-3-yl)pyrazolo[1,5-a]pyrimidin-5-yl)-4-tert-butylbenzamide]
26 | < 100 | CC(C)(C)c1ccc(C(=O)Nc2cc(-c3cccc(CC#N)c3)n3nccc3n2)cc1 [Compound 34, 4-tert-butyl-N-{7-[3-(cyanomethyl)phenyl]pyrazolo[1,5-a]pyrimidin-5-yl}benzamide]
